Measured values: ChEMBL document CHEMBL1140281, “The discovery of a selective, high affinity A(2B) adenosine receptor antagonist for the potential treatment of asthma” (Bioorg Med Chem Lett, 2005)

Legend:
Adenosine receptor A1 = biological target: T1, Adenosine receptor A1 (Homo sapiens, UniProt P30542); experiment: biochemical
T1 sequence (P30542 whole entry): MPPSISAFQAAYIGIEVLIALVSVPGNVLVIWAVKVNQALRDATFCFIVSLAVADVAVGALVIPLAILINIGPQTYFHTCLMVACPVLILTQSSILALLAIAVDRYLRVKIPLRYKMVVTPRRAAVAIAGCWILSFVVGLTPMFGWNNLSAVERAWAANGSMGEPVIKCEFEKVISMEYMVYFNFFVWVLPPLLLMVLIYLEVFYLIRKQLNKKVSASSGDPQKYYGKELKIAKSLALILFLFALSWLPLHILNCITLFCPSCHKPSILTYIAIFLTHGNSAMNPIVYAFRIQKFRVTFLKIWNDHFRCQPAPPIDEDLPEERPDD

Adenosine receptor A2b [1] = biological target: T2, Adenosine receptor A2b (Homo sapiens, UniProt P29275)
T2 sequence (P29275 whole entry): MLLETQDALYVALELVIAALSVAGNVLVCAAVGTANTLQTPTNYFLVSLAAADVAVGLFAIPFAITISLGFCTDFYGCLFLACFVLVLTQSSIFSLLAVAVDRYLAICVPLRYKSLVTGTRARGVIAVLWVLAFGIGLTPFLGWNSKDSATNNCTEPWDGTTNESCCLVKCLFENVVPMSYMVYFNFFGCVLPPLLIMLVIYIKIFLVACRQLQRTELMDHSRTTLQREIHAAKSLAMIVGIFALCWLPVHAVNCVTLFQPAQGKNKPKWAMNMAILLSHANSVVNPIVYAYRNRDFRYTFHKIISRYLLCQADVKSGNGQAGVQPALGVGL

Adenosine receptor A2a [2] = biological target: T3, Adenosine receptor A2a (Homo sapiens, UniProt P29274); experiment: biochemical
Description: Binding affinity for adenosine A2a receptor by using as [3H]ZM-241385 (2 nM) radioligand in membranes from HEK-A2A cells

Adenosine receptor A2b [3] = biological target: T2, Adenosine receptor A2b; experiment: Binding affinity for adenosine A2b receptor by using as [3H]ZM-241385 radioligand in membranes from HEK-A2B cells
Adenosine receptor A2a [4] = biological target: T3, Adenosine receptor A2a; experiment: biochemical; remark: listed apart in the source
Description: Binding affinity against Adenosine A2a receptor labeled by [3H]ZM-241385 in membranes prepared from HEK-A2A cells

Adenosine receptor A2b [5] = biological target: T2, Adenosine receptor A2b; experiment: Binding affinity against Adenosine A2b receptor labeled by [3H]ZM-241385 in membranes prepared from HEK-A2B cells

T3 sequence (P29274 whole entry): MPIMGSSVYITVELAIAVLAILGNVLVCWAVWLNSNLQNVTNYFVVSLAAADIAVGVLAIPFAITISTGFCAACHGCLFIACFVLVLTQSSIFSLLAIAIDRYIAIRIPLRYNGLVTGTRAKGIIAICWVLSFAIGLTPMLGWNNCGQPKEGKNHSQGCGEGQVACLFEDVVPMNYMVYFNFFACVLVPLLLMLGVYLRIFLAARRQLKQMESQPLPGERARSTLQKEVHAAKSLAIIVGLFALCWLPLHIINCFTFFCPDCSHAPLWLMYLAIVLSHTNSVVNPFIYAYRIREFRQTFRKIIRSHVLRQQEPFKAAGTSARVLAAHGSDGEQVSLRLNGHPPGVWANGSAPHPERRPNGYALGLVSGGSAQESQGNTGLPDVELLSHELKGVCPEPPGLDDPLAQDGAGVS

| Compound | Ki (Adenosine receptor A1) | Ki (Adenosine receptor A2b [1]) | Ki (Adenosine receptor A2a [2]) | Ki (Adenosine receptor A2b [3]) | Ki (Adenosine receptor A2a [4]) | Ki (Adenosine receptor A2b [5]) |
| --- | --- | --- | --- | --- | --- | --- |
| CCCn1c(=O)c2nc(-c3ccc(OCc4nc(-c5ccccc5C(F)(F)F)no4)cc3)[nH]c2n(CCC)c1=O | 473 nM | 325 nM | 3140 nM |  |  |  |
| CCCn1c(=O)c2[nH]c(-c3ccc(OCc4nc(-c5ccc(Cl)cc5)no4)cc3)nc2n(CCC)c1=O |  | 5170 nM |  |  |  |  |
| CCCn1c(=O)c2nc(-c3ccc(OCc4noc(-c5ccc(C(F)(F)F)cc5)n4)cc3)[nH]c2n(CCC)c1=O | 5180 nM | 255 nM | 4910 nM |  |  |  |
| CCCn1c(=O)c2nc(-c3ccc(OCc4nc(-c5cccc(C)c5)no4)cc3)[nH]c2n(CCC)c1=O | > 6000 nM | > 6670 nM | > 5000 nM |  |  |  |
| CCCn1c(=O)c2[nH]c(-c3ccc(OCc4nc(-c5cccc(C(F)(F)F)c5)no4)cc3)nc2n(CCC)c1=O | > 6000 nM | 945 nM | > 5000 nM |  |  |  |
| CCCn1c(=O)c2nc(-c3ccc(OCc4nc(-c5cccc(OC)c5)no4)cc3)[nH]c2n(CCC)c1=O | > 6000 nM | 1680 nM | > 5000 nM |  |  |  |
| CCCn1c(=O)c2[nH]c(-c3ccc(OCc4noc(-c5cccc(F)c5)n4)cc3)nc2n(CCC)c1=O | > 6000 nM | > 2000 nM | > 5000 nM |  |  |  |
| CCCn1c(=O)c2nc(-c3ccc(OCc4noc(-c5ccccc5C)n4)cc3)[nH]c2n(CCC)c1=O | > 10000 nM | 438 nM | > 15000 nM |  |  |  |
| CCCn1c(=O)c2nc(-c3ccc(OCc4noc(-c5ccc(Cl)cc5)n4)cc3)[nH]c2n(CCC)c1=O |  | 3660 nM |  |  |  |  |
| CCCn1c(=O)c2[nH]c(-c3ccc(OCc4nc(-c5ccc(C(F)(F)F)cc5)no4)cc3)nc2n(CCC)c1=O | 1170 nM | 485 nM | > 5000 nM |  |  |  |
| CCCn1c(=O)c2[nH]c(-c3ccc(OCc4nc(-c5ccc(F)cc5)no4)cc3)nc2n(CCC)c1=O | 1830 nM | 215 nM | > 5000 nM | 215 nM |  |  |
| CCCn1c(=O)c2[nH]c(-c3ccc(OCc4noc(-c5ccc(F)cc5)n4)cc3)nc2n(CCC)c1=O | > 6000 nM | 220 nM | > 5000 nM |  |  |  |
| CCCn1c(=O)c2[nH]c(-c3ccc(OCc4noc(-c5ccccc5Cl)n4)cc3)nc2n(CCC)c1=O |  | 5830 nM |  |  |  |  |
| CCCn1c(=O)c2nc(-c3ccc(OCc4nc(-c5ccccc5F)no4)cc3)[nH]c2n(CCC)c1=O | > 6000 nM | > 2000 nM | > 5000 nM |  |  |  |
| CCCn1c(=O)c2nc(-c3ccc(OCc4nc(-c5ccc(C)cc5)no4)cc3)[nH]c2n(CCC)c1=O | 643 nM | 526 nM | > 5000 nM |  |  |  |
| CCCn1c(=O)c2[nH]c(-c3ccc(OCc4noc(-c5ccc(OC)cc5)n4)cc3)nc2n(CCC)c1=O | 2190 nM | 250 nM |  |  |  |  |
| CCCn1c(=O)c2nc(-c3ccc(OCc4noc(-c5ccccc5F)n4)cc3)[nH]c2n(CCC)c1=O |  | 645 nM |  |  |  |  |
| CCCn1c(=O)c2nc(-c3ccc(OCc4nc(-c5ccccc5Cl)no4)cc3)[nH]c2n(CCC)c1=O | > 6000 nM | 1830 nM | > 5000 nM |  |  |  |
| CCCn1c(=O)c2nc(-c3ccc(OCc4nc(-c5cccc(F)c5)no4)cc3)[nH]c2n(CCC)c1=O | 2010 nM | 1450 nM | > 5000 nM |  |  |  |
| CCCn1c(=O)c2[nH]c(-c3ccc(OCc4noc(-c5cccc(C)c5)n4)cc3)nc2n(CCC)c1=O |  | 700 nM |  |  |  |  |
| CCCn1c(=O)c2nc(-c3ccc(OCc4nc(-c5cccc(Cl)c5)no4)cc3)[nH]c2n(CCC)c1=O | 6.4 nM | 42 nM | 407 nM |  |  |  |
| CCCn1c(=O)c2nc(-c3ccc(OCc4noc(-c5cccc(C(F)(F)F)c5)n4)cc3)[nH]c2n(CCC)c1=O | > 6000 nM | 1010 nM | > 5000 nM |  |  |  |
| CCCn1c(=O)c2nc(-c3ccc(OCc4nc(-c5ccc(OC)cc5)no4)cc3)[nH]c2n(CCC)c1=O | > 6000 nM | 2780 nM | > 5000 nM |  |  |  |
| CCCn1c(=O)c2[nH]c(-c3ccc(OCc4nc(-c5ccccc5OC)no4)cc3)nc2n(CCC)c1=O | > 6000 nM | 557 nM | > 5000 nM |  |  |  |
| CCCn1c(=O)c2nc(-c3ccc(OCc4noc(-c5cccc(Cl)c5)n4)cc3)[nH]c2n(CCC)c1=O | > 6000 nM | 2080 nM | > 5000 nM |  |  |  |
| CCCn1c(=O)c2nc(-c3ccc(OCc4nc(-c5ccccc5C)no4)cc3)[nH]c2n(CCC)c1=O | > 6000 nM | 1120 nM | > 5000 nM |  |  |  |
| CCCn1c(=O)c2nc(-c3ccc(OCc4nc(-c5ccc(C#N)cc5)no4)cc3)[nH]c2n(CCC)c1=O | > 6000 nM | 4520 nM | > 5000 nM |  |  |  |
| CCCn1c(=O)c2nc(-c3ccc(OCc4noc(-c5ccc(C)cc5)n4)cc3)[nH]c2n(CCC)c1=O | 113 nM | 91 nM | 1010 nM |  |  |  |
| CCCn1c(=O)c2[nH]c(-c3ccc(OCc4noc(-c5ccccc5OC)n4)cc3)nc2n(CCC)c1=O | 1160 nM | 127 nM | 2940 nM |  | 23 nM | 127 nM |
| CCCn1c(=O)c2[nH]c(-c3ccc(OCc4noc(-c5ccc(C#N)cc5)n4)cc3)nc2n(CCC)c1=O | 288 nM | 207 nM | > 5000 nM |  |  |  |
